Test results taken from a melting point compilation (Tetko et al.; mined from patent text by program, amines drawn as free bases though some values may be those of a salt).

SMILES | melting point [°C]
N#CCCNC(=O)c1cc(-c2cccc3nn(Cc4cccc(C(F)(F)F)c4)cc23)ccn1 | 166 to 167
Cn1cc(S(C)(=O)=O)c(=O)c2ccc(C(C)(C)C)cc21 | 247 to 248
Cc1ccc(S(=O)(=O)NC2CCCCN(c3nc4c(c(=O)n(C)c(=O)n4C)n3Cc3ccccc3)C2)cc1 (configuration not stated) | 80.2 to 88.2
Cn1cc2snnc2n1 | 125 to 127
O=c1nc(-c2cccs2)sc2ccccc12 | 158
CC(C)n1cnc2c(Cl)nc(N)nc21 | 135 to 136
C=CCSc1cc(C(=O)O)cc([N+](=O)[O-])c1-c1ccccc1 | 152 to 154
CNC1=NS(=O)(=O)N=C1NCCSCc1csc(CN(C)C)n1 | 144 to 148
O=C(O)C(=O)c1cn(Cc2ccc(F)cc2)c2ccc(-c3ccc(OC(F)(F)F)cc3)cc12 | 158 to 159
CC(=O)c1ccc(S(=O)(=O)Nc2nnn[nH]2)cc1 | 150 to 151
O=[N+]([O-])c1cc([N+](=O)[O-])c2ccccc2c1Nc1ccc(OC(F)(F)F)c(Cl)c1 | 140
CN1CCC(=C2c3ccc(Cl)cc3CCc3cccnc32)CC1 | 116 to 119
N#Cc1ccccc1NC(=O)Nc1ccc(S(N)(=O)=O)cc1 | 256 to 258
CN(C)C=C(C#N)CNC=O | 90
C=CCCn1c(C(=O)c2cc(C)cc(C#N)c2)c(C(C)C)c(=O)[nH]c1=O | 133 to 134
CCOC(=O)c1cn2c(C)c(C)nc2c(O)c1CCC(=O)c1ccccc1 | 172 to 174
CN1OC(C=Cc2ccccc2)CC1(Cn1ccnc1)c1ccc2ccccc2c1 (configuration not stated) | 166 to 169
CC1(C)COC(c2cc(-c3ccncc3)n(-c3ccc(F)cc3)n2)OC1 | 150 to 151
CC1(C)C=C(c2cccnc2)c2cc(Cl)c(Cl)cc2OC1 | 112
CC(C)Cc1ccc(CCCN(C)[C@H]2CC[C@H](c3ccc4[nH]c(=O)oc4c3)CC2)cc1 | 162 to 165
COC(=O)C1=C(C)NC(C)=C(C(=O)OC/C=C/c2ccc(O)cc2)C1c1cccc([N+](=O)[O-])c1 (configuration not stated) | 138 to 139
Cc1ccc(C(=O)NCC(=O)N2CC2C#N)cc1 (configuration not stated) | 92 to 94
Cc1c(C(N)=O)nnn1Cc1ccccc1Cl | 181 to 183
COC(=O)C1=C(C)NC(C)=C(C(=O)OCOC(C)=O)C1c1cccc(Cl)c1Cl (configuration not stated) | 144 to 148
Cn1cc(C(=O)NCc2ccc(Cl)cc2)c(=O)c2cc(CO)oc21 | 229 to 230
COc1ccc2c(c1)C(O)CC21CCN(CCCC(=O)c2ccc(F)cc2)C1 (configuration not stated) | 113 to 115

SMILES | melting point [°C]
CCOC(=O)c1cnn2c(-c3cccc(NC(=O)C4CCC4)c3)ccnc12 | 123 to 125
Clc1nc(C(Cl)(Cl)Cl)nc2ccc(I)cc12 | 154 to 155
COC(=O)C1C2C=CC(C2)C1N(C)S(=O)(=O)c1ccc(OCc2ccccc2)cc1 (configuration not stated) | 103 to 104
Cc1cc(NC(=O)CCCCCBr)ccc1O | 111 to 112
Cc1noc(NS(=O)(=O)c2ccc(-c3ccc(C(F)(F)F)cc3)s2)c1Br | 132
CC(C)(C)C(=O)CC(=O)Nc1cc(OC(=O)c2cc(C(C)(C)C)c(O)c(C(C)(C)C)c2)ccc1Cl | 145 to 147
CN1C(=O)C(c2cccc(C#Cc3ccccc3)c2)(c2cc(C=O)n(CCCF)c2)N=C1N (configuration not stated) | 85 to 90
COc1cc(CC(=O)O)ccc1OCCCc1cn(-c2ccc(C(F)(F)F)cn2)nc1C(C)C | 134 to 135
COc1cc(Nc2c(C#N)cnc3cc(OCCOCCN4CCNCC4)c(OC)cc23)c(Cl)cc1Cl | 88 to 90
O=C(Nc1nccs1)/C(=C/C1CCCC1)c1ccc(Cl)c(Cl)c1 | 57 to 59
CC(=O)Nc1c(C(=O)c2ccc(C)cc2)[nH]c2cc(Cl)ccc12 | 140 to 143
Fc1cc(Cl)ccc1/C=C/c1nc(COc2ccc(-c3nc(Cn4ccnc4)co3)cc2)co1 | 166 to 167
Cc1c(CCCCCCC(=O)O)cccc1C(=O)c1ccc(Cl)cc1 | 84
COC(=O)c1nc(-c2nccs2)cc(NC(C)=O)c1Cl | 187 to 188
COc1ccc2c(c1)Nc1cccc(S(C)(=O)=O)c1S2 | 204 to 206
Oc1nsc(OC2CCCCC2)n1 | 105
Cc1cc(Oc2cc(C(F)(F)F)nn2C)nc(Cl)n1 | 65
CCCc1nn(C)c2c(=O)n(CCCNc3ccc(OC(C)(C)C(=O)O)cc3)c(CC)nc12 | 124 to 126
c1ccc(Nc2nc(-c3cn[nH]c3)c(N3CCCCC3)s2)nc1 | 238
CC(C)(C)c1cc(CCc2ccccc2NC(=O)NCCCN2CCOCC2)cc(C(C)(C)C)c1O | 138 to 139
COC(=O)CNc1ccc(C(C)C)cc1 | 35 to 36
O=C(Oc1ccc([N+](=O)[O-])cc1)Oc1ccc2oc3ccccc3c2c1 | 183 to 185
CNC(=O)c1ccnc([N+](=O)[O-])c1 | 131 to 133
COc1ccc(-c2nc(C)nn2-c2ccc(S(N)(=O)=O)cc2)cc1OC | 176 to 178
COC(=O)C(Cl)Cc1ccc2c(c1)NC(=O)C(Cc1ccccc1)O2 (configuration not stated) | 124 to 127
O=C(NCCO)c1ccccc1S(=O)(=O)Cc1c(O[C@H](Cn2ccnc2)c2ccccc2)ccc2c1CCCC2=O | 241 to 243

SMILES | melting point [°C]
Cc1cnc2cc(-c3cn(C)c4ccccc34)[nH]c2n1 | 170 to 175
CC(=O)Nc1ccc(S(=O)(=O)c2cccc(Cl)c2)cc1 | 149 to 150
CCS(=O)c1c(C#N)nn(-c2c(Cl)cc(C(F)(F)F)cc2Cl)c1N (configuration not stated) | 173 to 174
CC(C)(C)OC(=O)NCCCCO/N=C(\C(=O)O)c1csc(NC(c2ccccc2)(c2ccccc2)c2ccccc2)n1 | 120 to 124
O=S1(=O)Cc2cc(Cl)c(Cl)cc2C(c2ccc(F)cc2)=NN1 | 196 to 200
CCCCCCSCCSc1nc(N)n[nH]1 | 76.5 to 78
CON=C(C(C)=NN=Cc1ccccc1-n1c(OC)nn(C)c1=O)c1cccc(C(F)(F)F)c1 | 157 to 161
Cc1cc(C)c(N)c(C(N)=O)c1 | 162 to 167
FC(F)(F)c1cc(I)ccc1-c1ccc(I)cc1C(F)(F)F | 119 to 120
C=CCOc1ccc(OC2CCCCO2)c2c1NC(=O)CC2 (configuration not stated) | 111 to 113
CCC1(C)Cc2c(C)c(N3CCN(c4ccc(OC)cc4)CC3)c(C)c(C)c2O1 (configuration not stated) | 106 to 110
O=C(O)Cc1ccc2oc3ncccc3c(=O)c2c1 | 244 to 245
CCCn1c(=O)cc(N)n(Cc2ccccc2)c1=O | 189 to 192
CNc1cc(Cl)ccc1C(C)=O | 65 to 66
O=C1NC(=O)C(=Cc2ccc(SCc3ccccc3)cc2)S1 | 237 to 238
CC1(C)CCC(=O)Nc2cc(Nc3ncc(Cl)c(Nc4ccc(N5CCOCC5)cc4OCCC#N)n3)ccc21 | 150 to 156
CCOC(C)O[C@H]1C(=O)N(C(=O)Oc2ccccc2)[C@H]1c1ccccc1 (some centres not stated) | 50 to 52
CCCCc1nc(CCC)nn1Cc1ccc(-c2ccccc2-c2nnn[nH]2)cc1 | 170
CCn1c(=O)oc2cc(N3C[C@H](C(=O)NC)OC3=O)ccc21 | 263 to 265
O=C(C1=C(N2CCCC2)CCC1)c1cccnc1Cl | 102 to 104
O=C(Nc1ccc(F)nc1)C1CC1 | 116 to 117
COc1ccc2cc(C3CCN(C[C@H](O)COc4cccc5sc(-c6ncc(C)o6)cc45)CC3)ccc2c1 | 163 to 166
C=CCCC(Oc1ccc(C(=O)Cl)cc1)C1CCCCC1 (configuration not stated) | 22 to 25
CCOC(=O)c1ncc2ccccc2n1 | 71 to 74
O=C1NC(C(Cl)(Cl)Cl)Nc2ccc(I)cc21 (configuration not stated) | 224 to 225
CC(=Cc1ccc(C(=O)O)cc1)[N+](=O)[O-] | 212 to 214

SMILES | melting point [°C]
O=C(O)CN1CCN2C(=O)N(c3cc(Cl)cc(Cl)c3)C(=O)C2(Cc2ccc(Br)cc2)C1 (configuration not stated) | 236
COc1cc(OC)c(-c2cc3ccccc3s2)cc1/C=C/C(=O)c1ccc(C(=O)NC(=O)C(C)C)cc1 | 208 to 209
CNC(=N)Nc1nc(-c2ccc(OC)cc2)c(-c2ccc(OC)cc2)s1 | 155 to 157
COC(=O)[C@H](Cc1ccc(I)cc1)NC(C)=O | 118 to 120
O=C(NOCC(O)CO)c1cc(Cl)c(F)c(F)c1Nc1ccc(I)cc1Cl (configuration not stated) | 152 to 154
CCc1cc(C(=O)c2ccccc2Cl)c(-n2c(C)nnc2Cc2cccc(OC(N)=O)c2Cl)s1 | 134 to 136
Oc1cccc(-n2cnc3cc(C(F)(F)F)ccc32)c1 | 168 to 170
O=C1c2ccccc2C(=O)N1OCc1cnoc1 | 133 to 135
CC=CC(=O)Nc1n[nH]c2cc(C(F)(F)F)ccc12 | 208
O=C(CC(CNS(=O)(=O)c1ccc(Oc2ccccc2)cc1)c1ccc(Cl)cc1)Nc1ccc(C(=O)O)cc1 (configuration not stated) | 119 to 121
O=C(OCc1ccccc1)N1CC[C@@H](Oc2ccc([N+](=O)[O-])cc2)[C@H](O)C1 (relative stereo) | 179 to 180
O=C(Nc1ccc(Cc2nnn[nH]2)cc1)C(F)(F)C(F)(F)F | 183 to 185
Brc1cccc(C#Cc2ccncc2)c1 | 140 to 142
COc1ccccc1SC(CCc1ccc(Cl)cc1)Cn1ccnc1 (configuration not stated) | 105 to 106
O=C(O)C1C2CCC(C2)C1C(F)(F)F (configuration not stated) | 87 to 90
CC(=S)NCC1CN(c2ccc(N3CCSCC3)c(F)c2)C(=O)O1 (configuration not stated) | 155 to 156
O=C(CC1CCc2ccccc2C1=O)c1ccccc1 (configuration not stated) | 73 to 76
Cc1ccc(S(=O)(=O)n2ccc3cccnc32)cc1 | 136 to 138
COc1ccccc1-c1c(C)c(C)c2cnc(Nc3ccc(N4CCOCC4)cc3)nn12 | 169 to 172
O=C(O)C(=O)c1ccc(OCCSc2ccccc2)cc1 | 72 to 73
COC(=O)c1c(-c2ccc3ccccc3c2)ccc2ccccc12 | 139 to 140
CCOC(=O)c1c(C)nc(Cl)c([N+](=O)[O-])c1NC(C)CC (configuration not stated) | 33 to 35
COc1ccc2c(c1)sc1ncc(C(O)CCc3ccccc3)n12 (configuration not stated) | 166 to 167
C[C@]12CCC(=O)N[C@@H]1CCc1cc(Sc3cnc4ccccc4c3)ccc12 | 168 to 170
